Entries after “also recorded” stand apart in the source; their conditions may differ. Read-outs that look alike come from different tables or passages of the source.
Assays:
Assay type in all cases: cell-based
[1] = Cytotoxicity (resazurin) growth inhibition assay; conditions: human
Experimental: The cytotoxicity of six compounds selected from in-silico screening was analyzed through a resazurin assay. Aliquots of 10^4 CYP3A4-overexpressing HepG2 cells were seeded per well into 96-well plates. Cells were treated with different concentrations of the selected compounds ranging from 0.003 to 100 µM in a total volume of 200 µL for 72 h. Then, 20 µL/well of resazurin 0.01% w/v (Sigma Aldrich, Taufkirchen, Germany) was added. The fluorescence intensity was measured with the Infinite M200 Pro-plate reader (Tecan, Crailsheim, Germany). Dose–response curves were generated from three independent experiments for each compound and 50% inhibition concentrations (IC50) were calculated. The analysis was represented using Prism 6 GraphPad Software (La Jolla, CA, USA).

[2] = system: CYP3A4-overexpressing HepG2 cells; test: Flow cytometric cell cycle analysis; conditions: IC50 concentration, 24 h; for S-phase cells population: control 12.47 ± 0.83%; for cells in G2/M phase: control 18.70 ± 0.69%
Experimental: After 24 h of incubation, cells were fixed with ethanol and stored at −20 °C overnight. […] The measurement was performed using a BD LSRFortessa™ Cell Analyzer (Becton–Dickinson, Heidelberg, Germany). The results were analyzed using FlowJo software (Celeza, Olten, Switzerland).

[3] = system: CYP3A4-overexpressing HepG2 cells; test: RNA-sequencing and gene set enrichment analysis; conditions: IC50 concentration, 24 h; for number of 'DNA-templated DNA replication' genes influenced by only one compound: Venn diagram; for activated pathway (gene set enrichment, GO Biological Process) / number of genes affected in 'nuclear chromosome segregation' pathway / number of genes involved in 'inflammatory response' pathway / number of genes targeted in 'DNA-templated DNA replication' pathway / suppressed pathway (gene set enrichment, GO Biological Process): vs DMSO control
Experimental: Aliquots of 5 × 10^5 CYP3A4-overexpressing HepG2 cells were seeded into six-well-plates 24 h before treatment. Cells were treated with previously calculated IC50 concentrations of the compounds of interest. Control (ctrl) cells were treated with 0.2% DMSO. After 24 h incubation, the cells were harvested. RNA extraction was performed with the […] RNA Mini Kit (Invitek Molecular GmbH, Berlin, Germany), according to the manufacturer's instruction. Briefly, the cell pellet was lysed with 350 μL Lysis Solution and treated with β-mercaptoethanol. […] After several washing steps, RNA was eluted with 60 μL of Elution Buffer R and the concentration and purity measured with NanoDrop. Next-generation sequencing was conducted by […] GmbH, Mainz, Germany. The quality of the extracted RNA was verified by the company with a 2100 Bioanalyzer system (Agilent Technologies, CA, USA). After mRNA isolation and library preparation using the NEBNext^© UltraTM II Directional RNA Library Prep Kit (New England Biolabs, MA, USA), RNA sequencing of around 25 mio PE reads (2 × 12.5 M reads, 2 × 150 nt) was performed with the Illumina NextSeq 2000TM system. Each treatment and control group included two replicates. Quality control on the sequencing data was performed with the FastQC tool (0.12.0, https://www.bioinformatics.babraham.ac.uk/projects/fastqc/). Transcript abundance estimates were computed with Salmon (version 1.5.0) (Patro et al. [2017]) with a transcriptome index generated from the GENCODE (version 38), and subsequently summarized to gene level with the […] package (version 1.16.0) (Love et al. [2020]). The exploration, modelling, and interpretation of the expression data followed previously described protocols (Ludt et al. [2022]). Exploratory data analysis was executed with the pcaExplorer package (version 2.24.0) (Marini and Binder [2019]). Differential expression analysis was performed with DESeq2 package (version 1.38.3) (Love et al. [2014]), setting the false discovery rate (FDR) cutoff to 0.05. Accurate estimation of the effect sizes (described as log2 fold change) was finalized using the […] shrinkage estimator (version 1.20.0) (Zitovsky and Love [2020]). Subsequent analyses included Gene Ontology pathway enrichment by topGO (version 2.50.0) (Alexa et al. [2006])-using all expressed genes as background dataset and the ideal package (version 1.22.0) (Ludt et al. [2022])-and by clusterProfiler (version 4.6.0) (Wu et al. [2021]) with default settings using the log fold change as input. […] [2021]). Gene expression profiles were plotted as heatmaps (color-coded standardized Z scores for the expression values, after variance stabilizing transformation) to simplify comparison across samples.

[4] = 72 h, resazurin, mean ± SD of three independent experiments, read-out: IC50
[5] = CYP3A4-overexpressing HepG2 cells, 72 h, resazurin, mean ± SD of three independent experiments, read-out: IC50

Row | Structure (SMILES) | IC50 at 72 h [1, 4] [µM] | IC50 at 72 h [1, 5] [µM] | S-phase cells population [2] [%] | cells in G2/M phase [2] [%] | number of 'DNA-templated DNA replication' genes influenced by only one compound [3] [genes] | activated pathway (gene set enrichment, GO Biological Process) [3] | number of genes affected in 'nuclear chromosome segregation' pathway [3] [genes] | number of genes involved in 'inflammatory response' pathway [3] [genes] | number of genes targeted in 'DNA-templated DNA replication' pathway [3] [genes] | suppressed pathway (gene set enrichment, GO Biological Process) [3] | IC50 at 72 h [1] [µM]
1 | O=C(OC1CCCCC1)c1ccccc1C(=O)OC1CCCCC1 [compound 1, dicyclohexyl phthalate] | 72.7 | – | – | – | – | – | – | – | – | – | –
2 | CC(C)COC(=O)c1ccccc1C(=O)OCC(C)C [compound 2, diisobutyl phthalate] | > 100 | – | – | – | – | – | – | – | – | – | –
3 | CC(C)(C)CC(C)(C)c1ccc(O)c(-n2nc3ccccc3n2)c1 [compound 3, octrizole] | – | 63.8 ± 2.21 | – | – | – | – | – | – | – | – | –
4 | Cc1cc(Cc2cc(C)cc(C(C)(C)C)c2O)c(O)c(C(C)(C)C)c1 [compound 4, 2,2′-methylene bis(6-tert-butyl-4-methylphenol)] | – | – | 6.26 ± 1.31 | 26.70 ± 8.40 | 10 | icosanoid metabolic process; also recorded: anion transport; also recorded: response to metal ions; also recorded: regulation of growth; also recorded: response to cytokines; also recorded: inflammatory response | 103 | 76 | 78 | regulation of chromosome segregation; also recorded: regulation of mitotic sister chromatid separation; also recorded: nuclear chromosome segregation; also recorded: chromosome organization; also recorded: metaphase/anaphase transition of mitotic cell cycle; also recorded: response to vitamin | 17.4
5 | CC(c1cc(C(C)(C)C)cc(C(C)(C)C)c1O)c1cc(C(C)(C)C)cc(C(C)(C)C)c1O [compound 5, 1,1-bis(3,5-di-tert-butyl-2-hydroxyphenyl)ethane] | – | 20 ± 1.68 | 10.88 ± 3.84 | 25.13 ± 2.25 | 8 | autophagy; also recorded: process utilizing autophagic mechanism; also recorded: response to endoplasmic reticulum stress; also recorded: cytokine production; also recorded: Golgi vesicle transport; also recorded: response to growth factors; also recorded: cellular response to growth factor stimulation | – | – | 68 | cholesterol metabolic process; also recorded: cholesterol biosynthetic process; also recorded: secondary alcohol biosynthetic process; also recorded: sterol metabolic process; also recorded: alcohol metabolic process; also recorded: small molecule metabolic process; also recorded: organic hydroxy compound metabolic process | –
6 | Cc1cc(Cc2cc(C)cc(C3CCCCC3)c2O)c(O)c(C2CCCCC2)c1 [compound 6, 2,2′-methylene bis(6-cyclohexyl-4-methylphenol)] | – | 18 ± 1.21 | 7.06 ± 5.94 | 25.77 ± 0.95 | 5 | response to nutrients levels; also recorded: regulation of extent of growth; also recorded: response to wounding; also recorded: inflammatory response; also recorded: cytokine production | 83 | 90 | 72 | regulation of chromosome segregation; also recorded: regulation of mitotic sister chromatid separation; also recorded: nuclear chromosome segregation; also recorded: chromosome organization | –

From publication PMC10794370, “Impact of plastic-related compounds on the gene expression signature of HepG2 cells transfected with CYP3A4” (Archives of Toxicology, 2023)
